Experimental data reported in paper PMC6072017, “Reversible covalent direct thrombin inhibitors” (PLoS ONE, 2018).
Read-outs that look alike come from different tables or passages of the source.

Assays:
[1] = system: thrombin generation in human platelet-poor plasma; assay: Thrombin generation assay (TGA); format: biochemical; settings: 70% human platelet-poor plasma, 37°C
Procedure: The assay was performed with human platelet-poor plasma (70% final concentration) in buffer containing 20 mM HEPES (pH 7.4), 150 mM NaCl, and compound in DMSO (4% final concentration). The assay also contained phospholipids (approx. 3 μM) and Dade Innovin (1/5000 final dilution of stock). The reaction was triggered by the addition of a solution containing substrate (Z-GGR-AMC, 0.5 mM final concentration) and CaCl2 (15 mM final concentration). The reaction was then monitored kinetically by fluorescence (excitation 380 nm, emission 460 nm) at 37°C for 90 min.

Factor XIa [2] = target: T1, Factor XIa (Homo sapiens, UniProt P03951); assay: Enzyme inhibition assay, chromogenic substrate S-2366
T1 sequence (P03951 388-625 limits assumed): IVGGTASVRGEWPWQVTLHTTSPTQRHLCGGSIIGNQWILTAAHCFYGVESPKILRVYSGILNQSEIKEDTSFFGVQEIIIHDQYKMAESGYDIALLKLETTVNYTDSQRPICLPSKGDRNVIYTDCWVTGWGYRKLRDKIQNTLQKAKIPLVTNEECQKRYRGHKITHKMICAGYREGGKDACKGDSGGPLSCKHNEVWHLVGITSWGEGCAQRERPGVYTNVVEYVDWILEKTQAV
T1 sequence (P03951 19-387 partner limits assumed): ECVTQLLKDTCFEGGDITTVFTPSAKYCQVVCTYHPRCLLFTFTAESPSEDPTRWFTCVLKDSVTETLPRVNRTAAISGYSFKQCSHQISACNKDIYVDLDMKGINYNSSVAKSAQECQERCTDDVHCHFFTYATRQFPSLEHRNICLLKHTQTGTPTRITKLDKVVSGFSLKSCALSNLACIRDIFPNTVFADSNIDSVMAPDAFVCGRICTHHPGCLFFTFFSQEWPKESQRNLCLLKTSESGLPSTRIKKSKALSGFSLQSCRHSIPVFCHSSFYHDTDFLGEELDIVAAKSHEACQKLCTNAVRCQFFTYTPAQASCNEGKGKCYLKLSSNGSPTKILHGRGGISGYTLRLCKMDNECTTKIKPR

aPC = aPC (Homo sapiens, UniProt P04070); assay: as above
aPC, sequence (P04070 212-450 limits assumed): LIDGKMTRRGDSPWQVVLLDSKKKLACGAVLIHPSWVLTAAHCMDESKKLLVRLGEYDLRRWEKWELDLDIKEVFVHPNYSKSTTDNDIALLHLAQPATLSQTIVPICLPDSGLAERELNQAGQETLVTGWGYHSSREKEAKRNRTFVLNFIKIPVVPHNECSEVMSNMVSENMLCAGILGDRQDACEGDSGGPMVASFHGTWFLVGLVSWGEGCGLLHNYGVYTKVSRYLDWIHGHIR
aPC, sequence (P04070 43-197 partner limits assumed): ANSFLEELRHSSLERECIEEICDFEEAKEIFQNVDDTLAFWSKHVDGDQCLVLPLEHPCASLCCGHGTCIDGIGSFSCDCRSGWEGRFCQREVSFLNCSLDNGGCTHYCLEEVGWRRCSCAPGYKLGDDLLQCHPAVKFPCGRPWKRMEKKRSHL

Factor XIIa = target: T2, Factor XIIa (Homo sapiens, UniProt P00748); assay: Enzyme inhibition assay, chromogenic substrate S-2302
T2 sequence (P00748 373-615 limits assumed): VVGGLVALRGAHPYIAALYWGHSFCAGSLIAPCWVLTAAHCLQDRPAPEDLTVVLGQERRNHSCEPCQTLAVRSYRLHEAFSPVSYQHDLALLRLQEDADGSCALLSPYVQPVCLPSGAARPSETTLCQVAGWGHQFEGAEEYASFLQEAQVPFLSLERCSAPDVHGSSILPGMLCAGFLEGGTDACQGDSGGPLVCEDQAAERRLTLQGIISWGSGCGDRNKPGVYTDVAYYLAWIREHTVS
T2 sequence (P00748 20-372 partner limits assumed): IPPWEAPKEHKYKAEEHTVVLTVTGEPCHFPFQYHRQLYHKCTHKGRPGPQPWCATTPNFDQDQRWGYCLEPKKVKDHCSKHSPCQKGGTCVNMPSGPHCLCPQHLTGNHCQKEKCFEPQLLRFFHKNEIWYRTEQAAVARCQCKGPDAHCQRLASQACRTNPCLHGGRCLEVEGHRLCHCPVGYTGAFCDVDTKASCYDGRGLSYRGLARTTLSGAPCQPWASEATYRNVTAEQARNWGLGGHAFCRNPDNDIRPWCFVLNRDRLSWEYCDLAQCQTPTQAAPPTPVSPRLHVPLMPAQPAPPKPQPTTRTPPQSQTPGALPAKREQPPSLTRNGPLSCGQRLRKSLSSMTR

Plasmin [3] = target: T3, Plasmin (Homo sapiens, UniProt P00747); assay: Enzyme inhibition assay, chromogenic substrate S-2251
T3 sequence (P00747 581-810 limits assumed, species assumed): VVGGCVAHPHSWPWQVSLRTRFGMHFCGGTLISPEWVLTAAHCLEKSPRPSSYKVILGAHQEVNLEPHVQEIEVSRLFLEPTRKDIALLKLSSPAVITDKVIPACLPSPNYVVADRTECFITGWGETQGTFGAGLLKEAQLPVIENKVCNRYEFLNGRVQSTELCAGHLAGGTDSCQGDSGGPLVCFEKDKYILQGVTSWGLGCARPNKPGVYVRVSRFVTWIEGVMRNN
T3 sequence (P00747 97-580 partner limits assumed, species assumed): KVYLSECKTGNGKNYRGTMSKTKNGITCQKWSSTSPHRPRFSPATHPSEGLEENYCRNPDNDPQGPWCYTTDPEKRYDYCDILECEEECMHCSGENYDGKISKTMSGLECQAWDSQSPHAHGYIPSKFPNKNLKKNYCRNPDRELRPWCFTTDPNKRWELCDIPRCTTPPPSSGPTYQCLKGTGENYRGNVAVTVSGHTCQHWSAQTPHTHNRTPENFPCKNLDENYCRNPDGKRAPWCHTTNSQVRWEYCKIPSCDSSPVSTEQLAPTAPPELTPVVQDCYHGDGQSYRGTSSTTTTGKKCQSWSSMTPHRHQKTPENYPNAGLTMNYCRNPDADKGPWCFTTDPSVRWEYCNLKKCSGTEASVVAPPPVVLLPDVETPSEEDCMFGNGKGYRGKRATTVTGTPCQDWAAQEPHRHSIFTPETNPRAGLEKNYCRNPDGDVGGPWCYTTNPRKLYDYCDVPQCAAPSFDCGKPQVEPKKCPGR

Factor IXa = Factor IXa (Homo sapiens, UniProt P00740); assay: Enzyme inhibition assay, substrate Spectrozyme
Factor IXa, sequence (P00740 227-461 limits assumed): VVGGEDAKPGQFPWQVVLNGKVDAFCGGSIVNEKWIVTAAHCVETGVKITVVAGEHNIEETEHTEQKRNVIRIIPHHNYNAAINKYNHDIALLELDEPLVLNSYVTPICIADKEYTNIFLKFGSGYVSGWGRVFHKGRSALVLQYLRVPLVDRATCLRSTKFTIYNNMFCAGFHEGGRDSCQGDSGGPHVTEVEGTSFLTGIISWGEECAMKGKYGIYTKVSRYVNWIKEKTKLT
Factor IXa, sequence (P00740 47-191 partner limits assumed): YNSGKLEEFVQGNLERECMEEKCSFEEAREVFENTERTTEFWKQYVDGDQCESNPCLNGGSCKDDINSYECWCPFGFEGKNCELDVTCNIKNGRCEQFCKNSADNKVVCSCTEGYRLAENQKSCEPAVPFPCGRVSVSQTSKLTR

Factor VIIa = Factor VIIa (Homo sapiens, UniProt P08709); assay: Enzyme inhibition assay, chromogenic substrate S-2238
Factor VIIa, sequence (P08709 213-466 limits assumed): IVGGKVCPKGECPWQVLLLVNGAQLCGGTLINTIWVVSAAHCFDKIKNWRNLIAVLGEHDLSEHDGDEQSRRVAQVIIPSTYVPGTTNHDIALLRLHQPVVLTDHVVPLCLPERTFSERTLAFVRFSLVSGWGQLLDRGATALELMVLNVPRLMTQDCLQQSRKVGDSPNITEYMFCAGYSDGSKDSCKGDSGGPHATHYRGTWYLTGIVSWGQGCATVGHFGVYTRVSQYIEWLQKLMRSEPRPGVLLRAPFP
Factor VIIa, sequence (P08709 61-212 partner limits assumed): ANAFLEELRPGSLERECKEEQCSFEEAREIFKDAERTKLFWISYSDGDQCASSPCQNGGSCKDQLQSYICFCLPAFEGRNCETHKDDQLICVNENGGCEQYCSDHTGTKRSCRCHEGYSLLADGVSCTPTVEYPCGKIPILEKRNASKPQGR
Factor VIIa, sequence (P13726 33-295 partner): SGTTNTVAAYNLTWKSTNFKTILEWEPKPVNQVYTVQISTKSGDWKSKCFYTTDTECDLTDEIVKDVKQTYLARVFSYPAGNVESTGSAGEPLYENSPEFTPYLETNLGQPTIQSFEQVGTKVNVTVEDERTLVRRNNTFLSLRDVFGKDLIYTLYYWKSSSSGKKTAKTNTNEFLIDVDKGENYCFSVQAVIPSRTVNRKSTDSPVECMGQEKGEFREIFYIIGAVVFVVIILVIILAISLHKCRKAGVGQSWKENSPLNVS

Factor Xa [4] = target: T4, Factor Xa (Homo sapiens, UniProt P00742); assay: Progress curve kinetics experiments; format: biochemical; parameters: purchased Haemtech Biopharma Services
T4 sequence (P00742 235-488 limits assumed): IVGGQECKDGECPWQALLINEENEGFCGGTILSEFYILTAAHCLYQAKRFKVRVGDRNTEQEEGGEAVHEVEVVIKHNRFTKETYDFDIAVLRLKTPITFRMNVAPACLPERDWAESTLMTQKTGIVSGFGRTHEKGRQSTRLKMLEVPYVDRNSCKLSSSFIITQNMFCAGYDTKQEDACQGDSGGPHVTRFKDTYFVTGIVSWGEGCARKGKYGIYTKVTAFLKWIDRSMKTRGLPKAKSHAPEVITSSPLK
T4 sequence (P00742 41-179 partner limits assumed): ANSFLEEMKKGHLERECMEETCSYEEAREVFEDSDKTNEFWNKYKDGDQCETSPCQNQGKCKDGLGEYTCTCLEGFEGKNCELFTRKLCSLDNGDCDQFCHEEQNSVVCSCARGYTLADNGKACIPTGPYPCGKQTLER
Procedure: (§3) The data for the initial time points, up to at least 65% reaction progress, were analyzed as described in Wakselman et al. [20].

Factor Xa [5] = target: T4, Factor Xa; assay: Enzyme inhibition assay, chromogenic substrate S-2765
[6] = Pharmacokinetics (PK) in CD-1 mice; settings: male, CD-1, mouse, plasma, iv, 0.5 mg/kg
Procedure: The test compound was injected intravenously (i.v.) into CD-1 mice at 0.5 mg/kg in formulation containing 5% DMA (dimethyl acetamide) 15% Solutol HS15 and 80% water. Animals were euthanized at predefined time points by CO2 inhalation and blood was collected in K2-EDTA vacutainers by cardiac puncture. The vials were then centrifuged to collect plasma. […] LC-MS was performed using a Luna Omega 1.6 μm Polar C18 (Phenomenex) column, a Shimadzu Nexera UHPLC, and a Sciex QTrap 5500 mass spectrometer. The PK parameters were calculated by non-compartmental analysis using Phoenix WinNonlin (Certara).

[7] = system: clotting of human platelet-poor plasma; assay: Activated partial thromboplastin time (aPTT) clotting assay; format: biochemical; settings: 37°C
Procedure: (§1) Both PT and aPTT assays were performed as recommended by the vendor (Diagnostica Stago). Briefly, citrated normal pooled human platelet-poor plasma was mixed with test compound (2% DMSO) at 37°C. Subsequently, either the aPTT assay reagent or PT assay reagent was added and mixed thoroughly. CaCl2 was then added to trigger the clotting process. The time for clot formation was measured in seconds and the test compound concentration to double the clotting time (CT2x) was determined.

[8] = Control sample in buffer in the absence of thrombin; settings: 50 mM Tris pH 7.4, 100 mM NaCl, 0.2% PEG 8000, up to overnight
Procedure: The reaction was then quenched with acetonitrile and centrifuged at 4°C, 1000x RCF, for 10 min to pellet the protein. […] Quantification of the compounds was performed by LC-MS using a Shimadzu Nexera X2 UPLC system coupled with a Sciex QTrap 5500. Chromatography was performed on a LunaOmega Polar C18 analytical column (1.6 μm, 50 x 2.1 mm). The mobile phases were 0.025% formic acid in water and 0.025% formic acid in acetonitrile.

Factor XIa [9] = target: T1, Factor XIa; assay: Progress curve kinetics experiments; format: biochemical
Procedure: as §3

Plasmin [10] = target: T3, Plasmin; assay: Progress curve kinetics experiments; format: biochemical; parameters: purchased Haemtech Biopharma Services
Procedure: The data for the initial time points, up to at least 65% reaction progress, were analyzed as described in Wakselman et al..
Thus, when fitting to Eq (3), the extracted values kobs for each well were plotted against the modified inhibitor concentration [I]′0=(1−α)[I]0. (6)
For the experiments presented in this paper, n = 2 and the mean and standard deviation are reported for each parameter.

Plasma stability assay = format: in vitro ADME; settings: 37°C, n = 2, read-out: Plasma stability t½
Procedure: The compound at 20 μM (2% final DMSO concentration) was incubated with CD-1 mouse (Innovative Research), SD rat (Innovative research), or human plasma (George King BioMed) at 37°C for up to three hours. Aliquots were taken out at different time points and quenched in acetonitrile containing diclofenac (internal standard). The samples were then centrifuged and the supernatant was analyzed by UHPLC using a Kinetex 2.6 μm C18 (Phenomenex) column and a Shimadzu Nexera UHPLC. Verapamil was used as a positive control.

[11] = Liver microsome (LM) stability assay; format: in vitro ADME; settings: liver microsomes, NADPH, n = 2, read-out: LM stability t½
Procedure: Compound at 1 μM (0.5% final DMSO concentration) was incubated with a 0.5 mg/mL CD-1 mouse (Sigma), SD rat (Life Technologies), or human liver microsome (Life Technologies) in the presence of 1 mM NADPH at 37°C for up to one hour. Aliquots were taken out at different time points and quenched in acetonitrile containing diclofenac (internal standard). […] Verapamil was used as a positive control, and warfarin was used as a negative control.

thrombin = thrombin (Homo sapiens, UniProt P00734); assay: Enzyme inhibition assay, chromogenic substrate S-2238
thrombin mutant S195A = target: T5, thrombin mutant S195A (Homo sapiens, UniProt P00734, S568A); assay: Binding of a dansyl probe to thrombin (tryptophan fluorescence); settings: 1 μM compound, excitation 280 nm, emission 340 nm
T5 construct: made in house; host or cells: E. coli
Procedure: (§2) Compound 2 at 1 μM was incubated with WT human α-thrombin (80 nM) or the active site mutant protein S195A at room temperature for 10 min. Then, fluorescence measurements (excitation 280 nm, emission 340 nm) were recorded in kinetic mode.

WT human α-thrombin = target: T6, WT human α-thrombin (Homo sapiens, UniProt P00734); assay: as above; settings: 1 μM compound, 80 nM thrombin, excitation 280 nm, emission 340 nm
T6 construct: made in house; host or cells: E. coli
Procedure: as §2

[12] = system: clotting of human platelet-poor plasma; settings: 37°C
Procedure: as §1

Trypsin = assay: Enzyme inhibition assay, chromogenic substrate S-2765; format: biochemical; settings: 10 min preincubation, 3 nM enzyme
Procedure: Final reaction volumes were 100 μL.
For FXIIa, the buffer also contained 50 mM imidazole. […] The buffer for FIXa (50 nM final concentration) was 50 mM Tris, 100 mM NaCl, 5 mM CaCl2, and 30% ethylene glycol.

[13] = read-out: Cmax EC50 (peak height)
[14] = read-out: ETP EC50 (endogenous thrombin potential)

With `[H]/N=C(/N)c1ccc(NCc2nc3cc(C(=O)N(CCC(=O)O)c4ccccn4)ccc3n2C)cc1` [Dabigatran] the EC50 [1, 13] was 0.24 ± 0.08 µM, the EC50 [1, 14] was 0.21 ± 0.04 µM and the IC50 (Factor XIa [2]) was 4.2 ± 1.5 µM. For the same compound, the IC50 (aPC) was 41.3 ± 7.6 µM, the IC50 (Factor XIIa) was > 50 µM and the IC50 (Plasmin [3]) was 8.4 ± 2.6 µM. For the same compound, the IC50 (Factor IXa) was > 50 µM and the IC50 (Factor VIIa) was 40.7 ± 13.3 µM.
Work on `COc1ccccc1C(=O)n1nc(C2CCNCC2)c(F)c1NCc1ccc(Cl)s1` [Compound 1] yielded a Ki (Factor Xa [4]) of 94 ± 57 µM, an IC50 (Factor Xa [5]) of 8.3 ± 3.4 µM and an AUC [6] of 88 ng·h/mL. The C0 [6] was 260 ng/mL, the Vd [6] was 30 L/kg and the clearance [6] was 183 mL/min/kg. The half-life [6] was 114 min, the “CT2x in aPTT assay (concentration to double the clotting time)” value [7] was > 100 µM and the “stability in buffer in the absence of thrombin” value [8] was “stable over the entire course of the experiment”. For the same compound, the IC50 (Factor XIa [2]) was 2.8 ± 0.2 µM, the IC50 (aPC) was > 50 µM and the Ki (Factor XIa [9]) was 5.5 ± 4 µM. It also gave a Ki (Plasmin [10]) of 0.8 ± 0.6 µM, a half-life at 20 μM (Plasma stability assay; CD-1 mouse plasma) of 14 ± 1 min and a half-life at 20 μM (Plasma stability assay; Human plasma) of 89 ± 9 min. For the same compound, the half-life at 20 μM (Plasma stability assay; SD rat plasma) was 25 min, the half-life at 1 μM ([11]; CD-1 mouse liver microsome 0.5 mg/mL) was 20 ± 2 min and the half-life at 1 μM ([11]; Human liver microsome 0.5 mg/mL) was 110 min. The half-life at 1 μM ([11]; SD rat liver microsome 0.5 mg/mL) was 8 ± 1.6 min, the IC50 (Factor XIIa) was > 50 µM and the IC50 (Plasmin [3]) was 0.7 ± 0.15 µM. The IC50 (Factor IXa) was > 50 µM and the IC50 (Factor VIIa) was 13.8 ± 2.8 µM.
With `Fc1c(C2CCNCC2)n[nH]c1NCc1ccc(Cl)s1` [Compound 3] the “Tmax EC2x (concentration necessary to shift the time to peak 2-fold)” value [1] was > 100 µM, the EC50 [1, 13] was > 100 µM and the EC50 [1, 14] was > 100 µM. The IC50 (thrombin) was > 100 µM.
In the case of `CN(C)c1cccc2c(S(=O)(=O)Nc3ccc(C(=O)n4nc(C5CCNCC5)c(F)c4NCc4ccc(Cl)s4)cc3)cccc12` [Compound 2], the IC50 (thrombin) is reported as 0.08 µM, the “change of tryptophan fluorescence on addition to thrombin S195A” value (thrombin mutant S195A) is reported as “failed to produce any change in fluorescence” and the “change of tryptophan fluorescence on incubation with thrombin WT” value (WT human α-thrombin) is reported as “time-dependent change in the fluorescence intensity at 340 nm”.
In the case of `CC1CNc2c(cccc2S(=O)(=O)N[C@@H](CCCNC(=N)N)C(=O)N2CC[C@@H](C)C[C@@H]2C(=O)O)C1` (some centres unmarked) [Argatroban], the EC50 [1, 13] is reported as 0.27 ± 0.05 µM, the EC50 [1, 14] is reported as 0.34 ± 0.11 µM and the IC50 (Factor Xa [5]) is reported as > 50 µM. The “CT2x in aPTT assay (concentration to double the clotting time)” value [7] was 0.27 ± 0.15 µM, the IC50 (Factor XIa [2]) was > 50 µM and the IC50 (aPC) was > 50 µM. The “CT2x in PT assay (concentration to double the clotting time)” value [12] was 0.60 ± 0.14 µM, the IC50 (Factor XIIa) was > 50 µM and the IC50 (Plasmin [3]) was > 50 µM. For the same compound, the IC50 (Factor IXa) was > 50 µM, the IC50 (Factor VIIa) was > 50 µM and the IC50 (Trypsin) was > 50 µM.
